Activity calls are given as the source filed them. The rule behind the calls is not given here.
How the values were obtained:
[1] = tested on: SW-620; experiment: Induction of apoptosis in human SW620 cells assessed as late apoptotic cells at 30 nM measured after 72 hrs in presence of CPT-11 by Annexin V-FITC staining based flow cytometric analysis (reference value: 5.75%); format: functional
[2] = tested on: HCT-116; experiment: Induction of apoptosis in human HCT-116 cells assessed as necrotic cells at 1 uM measured after 72 hrs by Annexin V-FITC staining based flow cytometric analysis (reference value: 2.41%); format: functional
[3] = tested on: HCT-116; experiment: Anticancer activity against human HCT-116 cells assessed as reduction in cell viability by measuring fold change in CPT-11 IC50 at 100 nM incubated for 5 days by MTT assay relative irinotecan alone; format: functional; details: time 5 day
[4] = biological target: PI3K p110 beta/p85 alpha (Homo sapiens, UniProt P42338); experiment: Inhibition of human PI3K p110 beta/p85 alpha using phosphatidylinositol-4, 5-bisphosphate as substrate incubated for 30 mins in the presence of Mg/ATP mix by HTRF-based analysis; format: protein-complex assay
PI3K p110 beta/p85 alpha, sequence (P27986 whole entry): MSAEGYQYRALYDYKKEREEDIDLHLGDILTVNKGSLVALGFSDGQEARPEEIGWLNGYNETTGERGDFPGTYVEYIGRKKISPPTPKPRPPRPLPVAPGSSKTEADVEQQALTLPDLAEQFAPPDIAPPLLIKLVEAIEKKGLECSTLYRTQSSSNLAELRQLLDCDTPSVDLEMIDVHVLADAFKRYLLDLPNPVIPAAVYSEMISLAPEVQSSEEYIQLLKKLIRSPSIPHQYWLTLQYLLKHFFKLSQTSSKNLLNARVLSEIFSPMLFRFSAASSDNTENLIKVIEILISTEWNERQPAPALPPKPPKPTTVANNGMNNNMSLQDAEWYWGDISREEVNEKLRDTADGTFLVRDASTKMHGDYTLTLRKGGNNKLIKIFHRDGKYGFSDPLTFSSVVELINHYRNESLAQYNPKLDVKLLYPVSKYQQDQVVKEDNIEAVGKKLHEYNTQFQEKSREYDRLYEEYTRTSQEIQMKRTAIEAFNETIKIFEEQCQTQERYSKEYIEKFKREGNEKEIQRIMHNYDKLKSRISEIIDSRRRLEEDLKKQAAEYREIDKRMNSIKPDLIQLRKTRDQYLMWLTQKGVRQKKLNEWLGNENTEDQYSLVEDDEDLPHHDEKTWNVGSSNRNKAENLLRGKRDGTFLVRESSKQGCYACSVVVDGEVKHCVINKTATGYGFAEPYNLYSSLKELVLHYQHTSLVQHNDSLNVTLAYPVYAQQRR
PI3K p110 beta/p85 alpha, sequence (P42338 whole entry): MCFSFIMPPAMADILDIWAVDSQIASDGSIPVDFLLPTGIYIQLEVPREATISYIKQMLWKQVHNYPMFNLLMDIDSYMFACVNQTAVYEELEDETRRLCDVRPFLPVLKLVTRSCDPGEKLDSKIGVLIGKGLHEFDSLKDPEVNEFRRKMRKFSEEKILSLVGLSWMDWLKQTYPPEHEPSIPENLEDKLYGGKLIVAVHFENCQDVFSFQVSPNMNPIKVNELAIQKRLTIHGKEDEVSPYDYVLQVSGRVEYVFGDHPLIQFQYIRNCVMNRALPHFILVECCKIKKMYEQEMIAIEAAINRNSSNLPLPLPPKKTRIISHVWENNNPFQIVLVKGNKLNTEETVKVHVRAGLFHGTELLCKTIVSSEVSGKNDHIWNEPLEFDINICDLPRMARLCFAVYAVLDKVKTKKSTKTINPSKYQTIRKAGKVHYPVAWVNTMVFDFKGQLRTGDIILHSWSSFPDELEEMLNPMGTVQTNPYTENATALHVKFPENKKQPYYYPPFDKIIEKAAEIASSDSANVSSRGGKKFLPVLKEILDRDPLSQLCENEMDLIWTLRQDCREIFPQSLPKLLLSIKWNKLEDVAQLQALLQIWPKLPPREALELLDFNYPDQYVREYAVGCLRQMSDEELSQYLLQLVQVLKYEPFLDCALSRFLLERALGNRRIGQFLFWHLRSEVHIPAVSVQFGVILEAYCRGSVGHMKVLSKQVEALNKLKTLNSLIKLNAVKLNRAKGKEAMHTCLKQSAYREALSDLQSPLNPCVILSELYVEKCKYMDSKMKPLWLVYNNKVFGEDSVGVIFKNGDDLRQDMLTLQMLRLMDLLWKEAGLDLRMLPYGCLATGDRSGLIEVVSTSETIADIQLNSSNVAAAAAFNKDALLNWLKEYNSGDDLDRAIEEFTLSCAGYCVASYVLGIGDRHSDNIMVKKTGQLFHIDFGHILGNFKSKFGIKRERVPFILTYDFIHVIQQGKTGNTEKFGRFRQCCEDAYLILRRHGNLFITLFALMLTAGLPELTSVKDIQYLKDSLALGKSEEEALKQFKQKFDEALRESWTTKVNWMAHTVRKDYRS

[5] = tested on: HCT-116; experiment: Induction of apoptosis in human HCT-116 cells assessed as necrotic cells at 100 nM measured after 72 hrs by Annexin V-FITC staining based flow cytometric analysis (reference value: 2.41%); format: functional
[6] = tested on: SW-620; experiment: Induction of apoptosis in human SW620 cells assessed as necrotic cells at 30 nM measured after 72 hrs in presence of CPT-11 by Annexin V-FITC staining based flow cytometric analysis (reference value: 5.83%); format: functional
[7] = tested on: SW-620; experiment: Induction of apoptosis in human SW620 cells assessed as necrotic cells at 10 nM measured after 72 hrs in presence of CPT-11 by Annexin V-FITC staining based flow cytometric analysis (reference value: 5.83%); format: functional
[8] = tested on: SW-620; experiment: Anticancer activity against human SW620 cells assessed as reduction in cell viability by measuring fold change in CPT-11 IC50 at 100 nM incubated for 5 days by MTT assay relative irinotecan alone; format: functional; details: time 5 day
[9] = tested on: HCT-116; experiment: Induction of apoptosis in human HCT-116 cells assessed as viable cells at 30 nM measured after 72 hrs in presence of CPT-11 by Annexin V-FITC staining based flow cytometric analysis (reference value: 73.74%); format: functional; details: read-out: Activity
[10] = tested on: HCT-116; experiment: Induction of apoptosis in human HCT-116 cells assessed as late apoptotic cells at 100 nM measured after 72 hrs by Annexin V-FITC staining based flow cytometric analysis (reference value: 19.80%); format: functional
[11] = biological target: T1, Serine/threonine-protein kinase Chk1 (Homo sapiens) (UniProt O14757); experiment: Inhibition of CPT-11 induced Chk1 phosphorylation in human SW620 cells by SDS-PAGE based Westernblot analysis; format: cell-based
T1 sequence (whole entry): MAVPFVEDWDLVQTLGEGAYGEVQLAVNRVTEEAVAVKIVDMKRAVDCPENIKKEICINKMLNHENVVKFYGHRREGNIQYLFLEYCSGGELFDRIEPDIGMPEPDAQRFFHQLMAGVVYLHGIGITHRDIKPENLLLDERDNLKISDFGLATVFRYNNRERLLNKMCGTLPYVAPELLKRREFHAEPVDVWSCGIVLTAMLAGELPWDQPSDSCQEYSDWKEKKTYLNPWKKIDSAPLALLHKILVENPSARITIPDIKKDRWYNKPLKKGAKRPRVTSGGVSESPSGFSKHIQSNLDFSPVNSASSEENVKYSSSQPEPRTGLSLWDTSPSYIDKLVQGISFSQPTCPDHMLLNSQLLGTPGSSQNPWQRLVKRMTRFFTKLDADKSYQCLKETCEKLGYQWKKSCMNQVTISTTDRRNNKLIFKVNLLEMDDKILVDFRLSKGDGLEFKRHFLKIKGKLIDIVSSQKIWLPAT

[12] = tested on: SW-620; experiment: Antitumor activity against human SW620 cells xenografted in BALB/C mouse assessed as reduction in tumor volume at 5 mg/kg, ip administered once a week and measured after 23 days in the presence of CPT-11; format: functional, organism-based; details: time 23.0 day
[13] = biological target: DNA-dependent protein kinase catalytic subunit (Homo sapiens, UniProt P78527); experiment: Inhibition of DNA-PK (unknown origin) using GST-cMyc-p53 as substrate incubated for 30 mins in the presence of Mg/ATP mix by HTRF-based analysis
[14] = tested on: SW-620; experiment: Radiosensitizing activity against human SW620 cells assessed as reduction in colony formation at 27 nM incubated after 14 days in the presence of 1.5 Gy irradiation by crystal violet staining based analysis; format: functional, cell-based; details: time 14.0 day
[15] = tested on: HCT-116; experiment: Induction of apoptosis in human HCT-116 cells assessed as early apoptotic cells at 1 uM measured after 72 hrs by Annexin V-FITC staining based flow cytometric analysis (reference value: 4.06%); format: functional
[16] = tested on: HCT-116; experiment: Induction of apoptosis in human HCT-116 cells assessed as necrotic cells at 10 nM measured after 72 hrs in presence of CPT-11 by Annexin V-FITC staining based flow cytometric analysis (reference value: 2.41%); format: functional
[17] = Toxicity in BALB/c mouse xenografted with human SW620 cells assessed as spleen damage at 5 mg/kg, ip administered once daily and measured after 23 days by H&E staining based microscopic analysis; format: organism-based, SW-620; details: in vivo, 552 h, time 23 day
[18] = Toxicity in BALB/c mouse xenografted with human SW620 cells assessed as heart damage at 5 mg/kg, ip administered once daily and measured after 23 days by H&E staining based microscopic analysis; format: organism-based, SW-620; details: in vivo, 552 h, time 23 day
[19] = tested on: HCT-116; experiment: Induction of apoptosis in human HCT-116 cells assessed as viable cells at 1 uM measured after 72 hrs by Annexin V-FITC staining based flow cytometric analysis (reference value: 73.74%); format: functional; details: read-out: Activity
[20] = tested on: SW-620; experiment: Antiproliferative activity against human SW620 cells assessed as reduction in colony formation at 27 nM measured after 14 days by crystal violet staining based microscopic analysis; format: functional, cell-based; details: time 14.0 day
[21] = tested on: SW-620; experiment: Induction of apoptosis in human SW620 cells assessed as viable cells at 100 nM measured after 72 hrs in presence of CPT-11 by Annexin V-FITC staining based flow cytometric analysis (reference value: 87.36%); format: functional; details: read-out: Activity
[22] = biological target: Serine/threonine-protein kinase ATR (Homo sapiens, UniProt Q13535); experiment: Inhibition of ATR (unknown origin) using GST-cMyc-p53 as substrate incubated for 30 mins in the presence of Mg/ATP mix by HTRF-based analysis
[23] = biological target: Phosphatidylinositol 4,5-bisphosphate 3-kinase catalytic subunit gamma isoform (Homo sapiens, UniProt P48736); experiment: Inhibition of human PI3K p120 gamma using phosphatidylinositol-4, 5-bisphosphate as substrate incubated for 30 mins in the presence of Mg/ATP mix by HTRF-based analysis
Phosphatidylinositol 4,5-bisphosphate 3-kinase catalytic subunit gamma isoform, sequence (P48736 whole entry, canonical isoform): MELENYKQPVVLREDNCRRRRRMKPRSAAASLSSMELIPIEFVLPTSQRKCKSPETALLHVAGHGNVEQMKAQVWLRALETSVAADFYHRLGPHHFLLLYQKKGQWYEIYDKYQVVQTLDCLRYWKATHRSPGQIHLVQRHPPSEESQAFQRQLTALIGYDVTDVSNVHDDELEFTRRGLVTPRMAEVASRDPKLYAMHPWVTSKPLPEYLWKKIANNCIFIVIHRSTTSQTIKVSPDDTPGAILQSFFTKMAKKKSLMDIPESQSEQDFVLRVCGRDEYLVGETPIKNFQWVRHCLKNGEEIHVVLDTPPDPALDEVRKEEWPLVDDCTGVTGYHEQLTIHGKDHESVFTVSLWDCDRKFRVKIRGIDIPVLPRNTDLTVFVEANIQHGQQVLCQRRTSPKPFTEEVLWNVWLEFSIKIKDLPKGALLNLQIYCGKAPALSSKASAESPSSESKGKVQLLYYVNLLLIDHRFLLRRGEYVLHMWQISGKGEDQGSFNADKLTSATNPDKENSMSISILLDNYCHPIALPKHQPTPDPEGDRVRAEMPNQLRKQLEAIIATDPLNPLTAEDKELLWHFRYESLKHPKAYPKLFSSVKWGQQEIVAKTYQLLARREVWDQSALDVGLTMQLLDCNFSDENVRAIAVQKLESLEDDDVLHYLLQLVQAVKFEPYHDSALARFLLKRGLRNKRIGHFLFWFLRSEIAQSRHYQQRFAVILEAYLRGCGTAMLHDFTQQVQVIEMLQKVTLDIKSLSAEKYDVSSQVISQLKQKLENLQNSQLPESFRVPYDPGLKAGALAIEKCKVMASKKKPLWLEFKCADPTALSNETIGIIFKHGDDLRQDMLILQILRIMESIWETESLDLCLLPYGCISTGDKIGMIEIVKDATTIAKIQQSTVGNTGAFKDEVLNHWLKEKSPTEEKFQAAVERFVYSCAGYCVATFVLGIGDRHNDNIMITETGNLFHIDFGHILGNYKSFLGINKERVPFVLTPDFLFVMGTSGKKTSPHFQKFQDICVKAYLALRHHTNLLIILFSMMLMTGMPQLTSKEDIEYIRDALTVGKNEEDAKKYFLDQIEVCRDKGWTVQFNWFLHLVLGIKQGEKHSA

[24] = tested on: SW-620; experiment: Antiproliferative activity against human SW620 cells assessed as reduction in colony formation at 9 nM measured after 14 days by crystal violet staining based microscopic analysis; format: functional, cell-based; details: time 14.0 day
[25] = tested on: HCT-116; experiment: Induction of apoptosis in human HCT-116 cells assessed as late apoptotic cells at 100 nM measured after 72 hrs in presence of CPT-11 by Annexin V-FITC staining based flow cytometric analysis (reference value: 19.80%); format: functional
[26] = tested on: HCT-116; experiment: Induction of apoptosis in human HCT-116 cells assessed as necrotic cells at 30 nM measured after 72 hrs in presence of CPT-11 by Annexin V-FITC staining based flow cytometric analysis (reference value: 2.41%); format: functional

In the case of C[C@H](c1ccccc1)n1nnc2cnc3ccc(-c4ccc(OCCCN(C)C)nc4)cc3c21, the Activity [1] is reported as 44%, the Activity [2] is reported as 5.57% and the “fold change (FC)” value [3] is reported as 16. For the same compound, the IC50 [4] was 1.85 µM, the Activity [5] was 9.24% and the Activity [6] was 1.83%. The Activity [7] was 5.94%, the “fold change (FC)” value [8] was 4.4 and the viability at 0.03 µM [9] was 25.7%. For the same compound, the Activity [10] was 14.21%, the inhibition [11] was “inactive” and the Activity [12] was “Active”. The IC50 [13] was 0.123 µM, the Activity [14] was “Active” and the Activity [15] was 1.34%. The Activity [16] was 8.88%, the Activity [17] was “Non-Toxic” and the Activity [18] was “Non-Toxic”. The viability at 1 µM [19] was 62.1%, the Activity [20] was “inactive” and the viability at 0.1 µM [21] was 30.5%. For the same compound, the IC50 [22] was > 10 µM, the IC50 [23] was > 10 µM and the Activity [24] was “inactive”. The Activity [25] was 68.15% and the Activity [26] was 8.39%.

Source: ChEMBL document CHEMBL5316381, “Discovery of [1,2,3]Triazolo[4,5-c]quinoline Derivatives as a New Class of Ataxia-Telangiectasia Mutated Kinase Inhibitors” (ACS Med Chem Lett, 2023)
